Data reported in patent US20040171613A1, “Therapeutic agent for non-immediate type allergic diseases” (JAPAN TOBACCO INC., priority 2001, published 2004).
Read-outs that look alike come from different tables or passages of the source.

Columns and labels:
[1] = system: 2-AG-E-induced ear swelling; assay: effect of compound A on 2-AG-E-induced ear swelling; format: in vivo, mouse
Protocol: Therefore, 2-arachidonoylglycerol ether (2-AG-E), the stable form of an endogenous ligand candidate 2-arachidonoylglycerol, and a specific CB2 agonist HU-308 were examined whether they directly induce ear swelling and compared to the ear swelling induced by arachidonic acid (AA).
Synthetically produced 2-AG-E and HU-308 were prepared with acetone to 1 or 10% (w/v) and 10% (w/v), respectively, and AA (Sigma) was prepared with acetone to 1.25% (w/v), on needed basis. 10 μL each of these substances was applied on each side of the left ear.
One hour later, 10 μL each of 10% (w/v) 2-AG-E was applied on each side of the left ear.

[2] = system: spontaneous scratching reaction; assay: spontaneous scratching reaction of NC mouse; format: in vivo; settings: NC/Jic mice; oral once a day for 3 weeks; vs solvent control
Excerpt: Currently, NC mouse is used as an animal model of atopic dermatitis. No dermatitis or scratching action is observed when the mouse is kept in an environment under the control of atmospheric microorganisms (in SPF environment). However, when the mouse is kept in a conventional environment, scratching action together with the onset of dermatitis can be observed from about week 8 and the symptom progresses into chronic symptom (J. Dermatol. Sci., 25, 20-28, 2001).
Preparation of solvent: MC was dissolved in tap water to prepare an aqueous 0.5% (w/v) MC solution.
As positive controls, betamethasone valerate (Sigma) and tacrolimus hydrate (extracted from Prograf (Fujisawa Pharmaceutical Co., Ltd.)) were similarly prepared to 1 mg/mL. Betamethasone valerate is one of the adrenocorticosteroids that is considered to be effective for the treatment of atopic dermatitis. Tacrolimus hydrate is a therapeutic agent of atopic dermatitis which is known as an immunosuppressor as described above.
The mice (A) were taken away from the cage and the NC/Jic mice were used at the age of 16 weeks.
Breeding conditions: The mice were fed with solid feed CA-1 (CLEA JAPAN INC.) ad libitum and tap water as drinking water ad libitum, and kept at a temperature of 22±2° C. and a humidity of 55±10% under lighting from 8:00 a.m. to 20:00 p.m.
From 10 days before the start of the experiment, the number of scratching behavior with hind legs of the mice was visually counted (for 20 minutes; once daily) over 2 days or 3 days. Among the plural mice counted, mice with 50 or more average scratching movements per day were selected for use.
The behavior of the mice was filmed under unattended environment with a video camera to count the scratching motion with hind legs for one hour. […] This series of scratching motions was counted as one scratching movement, and all such scratching movements were counted irrespective of scratched sites. The measurement was done on the starting day of administration, and one day, 3, 6, 10, 13, 17 and 20 days after the start of administration. […]

CB1 = CB1 (Homo sapiens, UniProt P21554); settings: from JP-A 2000-256323, Table 33; cited from earlier work
Sequence of CB1 (P21554 whole entry, species assumed): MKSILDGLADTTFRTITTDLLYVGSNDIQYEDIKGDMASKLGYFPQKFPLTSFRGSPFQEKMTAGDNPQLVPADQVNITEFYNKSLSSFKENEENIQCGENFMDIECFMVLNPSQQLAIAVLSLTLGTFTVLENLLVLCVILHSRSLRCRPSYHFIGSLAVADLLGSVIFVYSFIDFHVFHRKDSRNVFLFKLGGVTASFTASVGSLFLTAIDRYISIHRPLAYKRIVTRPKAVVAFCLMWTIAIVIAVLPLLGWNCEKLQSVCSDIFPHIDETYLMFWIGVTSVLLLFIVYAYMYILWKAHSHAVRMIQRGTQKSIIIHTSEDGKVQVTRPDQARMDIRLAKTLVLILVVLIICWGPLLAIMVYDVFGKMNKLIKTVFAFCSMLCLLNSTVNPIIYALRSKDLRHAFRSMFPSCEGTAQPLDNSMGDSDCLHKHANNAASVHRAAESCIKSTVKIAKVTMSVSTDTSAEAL

[3] = system: IgE-dependent allergic dermatitis; settings: mouse, in vivo
Protocol: (§1) Using a triphase dermatitis model that can be induced by antigen in mouse passively sensitizationed with IgE, the actions of CB2 inverse agonist and CB2 agonist were examined.
(§2) *Animal: 8 to 10 weeks-old Female BALB/c mouse (Japan SLC Inc.) was used.
(§3) Preparation of solvent: MC was dissolved in distilled water to prepare an aqueous 0.5% MC solution.
(§4) Anti-DNP IgE (antibody against DNP; Yamasa Corp.) was prepared to 15 μg/mL with physiological saline. 0.2 mL of the resulting solution was given through the caudal vein to the mouse.
(§5) Antigen preparation: 0.15% (w/v) of DNFB (2,4-dinitrofluorobenzene) was prepared in a mixed solution of acetone and olive oil (3:1, v/v) on needed basis.
(§6) Antigen application: 25 μl of the antigen solution was applied on each side of both of the ears 24 hours after the administration of the anti-DNP IgE.
(§7) From the next day of the antigen application to day 8 after the antigen application, 10 mL/kg test compound was orally administered once a day 9 times in total. On the day of antigen application, the test compound was administered one hour before the antigen application and the test compound was administered one hour before the measurement of the thickness of the ear on day 8 after the antigen application.
(§8) Before and 8 days after the antigen application, the thickness of the ear was measured with a dial thickness gauge (Mitutoyo Corp.). The difference between the value measured before the antigen application and at each time point was used as an index of swelling.
(§9) After the measurement of ear swelling, spleen and thymus were harvested to weigh their wet weights.

[4] = system: IgE-dependent allergic dermatitis; assay: murine IgE-dependent allergic dermatitis (triphase ear swelling); format: in vivo, mouse; settings: oral 10 mg/kg
Protocol: A model was produced by passive sensitization of a mouse with IgE and repeated antigen challenge to trigger triphase (early phase, late phase and very late phase) dermatitis (Pharmacology, 60(2), 97-104, February 2000). Relation of mast cells and T cells, as well as invasion of eosinophils in local inflammatory sites is confirmed in these reactions.
In addition, as positive controls, similarly to the test compound, 1 mg/mL ketotifen fumarate (Sigma) and 3 mg/mL pranlukast hydrate (extracted from Onon™ (Ono Pharmaceutical Co., Ltd.)) were prepared. Pranlukast hydrate is used as a leukotriene inhibitor for therapeutic agents for asthma and allergic rhinitis. Ketotifen fumarate is used as a chemical mediator release suppressor for asthma, allergic rhinitis, eczema, dermatitis, urticaria, dermal pruritis and allergic conjunctivitis.
During the period from the antigen application day to the start of the dosing of the test compound, in place of the test compound, only the solvent was orally administered at 10 mL/kg once a day.
FIGS. 4 to 6 show the results of each measurement.

human basophils = assay: leukotriene production from human basophils; format: cell-based; settings: anti-human IgE antibody stimulation; IL-3 preincubation
Protocol: To act them on cells, the solutions were further diluted to 10 μM to 0.01 μM (0.1% DMSO solution).
Using a syringe charged with 3.8% sodium citrate solution, 100 mL blood was obtained from human blood.
Using 10× HBSS (−) (10×Hank's balanced salt solution, GIBCO), Percoll (Amersham) and Milli Q water, 1.070 g/mL, 1.079 g/mL and 1.088 g/mL Percoll-HBSS (−) were prepared and layered, and the obtained blood was loaded on the layers and centrifuged at 300× g for 25 minutes. A cell fraction between the 1.070 g/mL Percoll-HBSS (−) layer and the 1.079 g/mL Percoll-HBSS (−) layer was recovered. 3 volumes of HBSS (−) was added to the recovered cell suspension and centrifuged at 300× g at 4° C. for 7 minutes. After centrifugation, the supernatant was discarded and the cells were rinsed once with HBSS (−). Thus recovered cell population was used as the basophils.
The basophils were prepared to 2.5×10^6 cells/mL with Tyrode solution, and 10 μg/mL recombinant human IL-3 (Genzyme/Techne) was added to a final concentration of 100 ng/mL. Immediately thereafter, 80 μL/well ([…]) of basophils were seeded on a round-bottom 96-well plate and were incubated in 5% CO2 at 37° C. for 30 minutes.
After preincubation, 10 μL/well of the above-described test compound was added and incubated in 5% CO2 at 37° C. for 10 minutes. […]

[5] = system: IgE-dependent allergic dermatitis; settings: mouse, in vivo, po
Protocol: as §1, §2, §3, §4, §5, §6, §7, §8, §9

In the case of `CCCCCOc1c(OC)ccc2cc(C(=O)NCc3ccc4c(c3)OCO4)c(=O)[nH]c12` [Compound A, N-(benzo[1,3]dioxol-5-ylmethyl)-7-methoxy-2-oxo-8-pentyloxy-1,2-dihydroquinoline-3-carboxamide], the “ear swelling induced by the application of 10% 2-AG-E (AUC day 0 to day 8)” value ([1]; oral 0.01, 0.1, 1, 10 mg/kg one hour before 2-AG-E, dose-dependent) is reported as “suppressed ear swelling”, the “ear swelling induced by 10% 2-AG-E, significance” value ([1]; oral 1 or 10 mg/kg) is reported as “significant effect” and the “number of scratching movements” value [2] is reported as “suppressed the number of scratching movements”. The IC50 (CB1) was 3.44 µM, the “ear swelling, very late phase” value [3] was “significantly suppressed ear swelling” and the “ear swelling, late phase” value ([4]; 24 hours after antigen application) was “significantly suppressed ear swelling”. For the same molecule, the “ear swelling, very late phase” value ([4]; 8 days after antigen application) was “significantly suppressed ear swelling”, the “ear swelling, very late phase, delayed start of dosing” value ([4]; administration started after the induction of the late phase) was “effect of compound A in the very late phase was observed” and the “ear swelling, early phase” value ([4]; one hour after antigen application) was “significantly suppressed ear swelling”. The “production of leukotrienes (C4/D4/E4)” value (human basophils) was “suppressive action”, the “wet weight of the spleen” value [5] was “no apparent changes” and the “wet weight of the thymus” value [5] was “no apparent changes”.
